Data published in paper PMC7531004, “Discovery of gramicidin A analogues with altered activities by multidimensional screening of a one-bead-one-compound library” (Nature Communications, 2020).
Where a SMILES comes first, the peptide text is derived from it. [ ]: non-standard residue; d: D form. The star is where a group is joined. NHCH2CH2OH = OCCN*; For = O=C*

What was measured:
[1] = cell viability/%
Procedure, shortened: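 P388 cells at 1 × 10^4 cells/mL (final) were exposed to library peptides (stocks diluted 250-fold in RPMI1640/10% FBS) for 92 h at 37 °C, 5% CO2. Viable cells were counted by WST-1/1-methoxy PMS (4 h), absorbance 415 nm, and expressed as cell viability (%).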

[2] = H+/Na+ transport assay of bead-derived peptides (one-point); assay type: biochemical; parameters: key: relative activity; mean of two control wells = 1.00; conditions: bead-derived peptide solution, EYPC/EYPG LUVs;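 note: relative to parent gramicidin A activity set to 1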
Procedure, shortened: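 One-point screen: peptide + pyranine-loaded LUVs, 30 min RT with vortexing, 96-well. Read-out is fluorescence intensity scaled as 100 × (Ix – I0)/(Imax – I0). Imax from Triton X-100, I0 from untreated vesicles, and the mean of the two control wells is set to 1.00.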

[3] = test system: Streptococcus pyogenes SSI-9; assay: Antibacterial activity assay of bead-derived peptides (three concentrations); assay type: cell-based; parameters: key: +++: inhibition by the 640-fold diluted peptide solution; ++: inhibition by the 160-fold diluted solution; +: inhibition by the 40-fold diluted solution; -: no inhibition; conditions: S. pyogenes, bead-derived peptide solution, three concentrations
Procedure, shortened: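 Library peptide stock applied undiluted, 4-fold and 16-fold diluted in DMSO to S. pyogenes SSI-9 (2 × 10^5 CFU) in cation-adjusted Mueller Hinton broth with 5% laked horse blood. After 18 h at 37 °C, growth judged by visible cell precipitation.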

SMILES	viability [1] [%]	H+/Na+ transport activity normalized against the value of 1 (1.00) [2]	antibacterial activity [3]
CNC(=O)C[C@@H](NC(=O)[C@H](C)NC(=O)CNC(=O)[C@@H](NC=O)C(C)C)C(=O)N[C@@H](C)C(=O)N[C@@H](C(=O)N[C@H](C(=O)N[C@@H](C(=O)N[C@@H](Cc1c[nH]c2ccccc12)C(=O)N[C@H](CC(C)C)C(=O)N[C@@H](Cc1c[nH]c2ccccc12)C(=O)N[C@H](CC(C)C)C(=O)N[C@@H](Cc1c[nH]c2ccccc12)C(=O)N[C@H](CC(C)C)C(=O)N[C@@H](Cc1c[nH]c2ccccc12)C(=O)NCCO)C(C)C)C(C)C)C(C)C [compound 10673] (For-VGA[dD](NHMe)A[dV]V[dV]W[dL]W[dL]W[dL]W-NHCH2CH2OH)	97.7	1.01	-
CC(C)C[C@@H](NC(=O)[C@H](C)NC(=O)[C@H](NC(=O)[C@H](C)NC(=O)CNC(=O)[C@@H](NC=O)C(C)C)C(C)C)C(=O)N[C@H](C(=O)N[C@@H](C(=O)N[C@@H](Cc1c[nH]c2ccccc12)C(=O)N[C@@H](C(=O)N[C@@H](Cc1c[nH]c2ccccc12)C(=O)N[C@H](CC(C)C)C(=O)N[C@@H](Cc1c[nH]c2ccccc12)C(=O)N[C@@H](C(=O)N[C@@H](Cc1c[nH]c2ccccc12)C(=O)NCCO)C(C)C)C(C)C)[C@H](C)O)C(C)C [compound 3206] (For-VGA[dV]A[dL]V[dT]W[dV]W[dL]W[dV]W-NHCH2CH2OH)	97.4	1.19	-
CC(C)C[C@@H](NC(=O)[C@H](C)NC(=O)CNC(=O)[C@@H](NC=O)C(C)C)C(=O)N[C@@H](C)C(=O)N[C@@H](C(=O)N[C@H](C(=O)N[C@H](CC(C)C)C(=O)N[C@@H](Cc1c[nH]c2ccccc12)C(=O)N[C@@H](C(=O)N[C@@H](Cc1c[nH]c2ccccc12)C(=O)N[C@H](CC(C)C)C(=O)N[C@@H](Cc1c[nH]c2ccccc12)C(=O)N[C@@H](C(=O)N[C@@H](Cc1c[nH]c2ccccc12)C(=O)NCCO)C(C)C)[C@H](C)O)C(C)C)C(C)C [compound 1253] (For-VGA[dL]A[dV]V[dL]W[dT]W[dL]W[dV]W-NHCH2CH2OH)	58.1	1.03	-
CC(C)C[C@@H](NC(=O)[C@H](C)NC(=O)[C@H](NC(=O)[C@H](C)NC(=O)CNC(=O)[C@@H](NC=O)C(C)C)C(C)C)C(=O)N[C@H](C(=O)N[C@@H](C(=O)N[C@@H](Cc1c[nH]c2ccccc12)C(=O)N[C@H](CC(C)C)C(=O)N[C@@H](Cc1c[nH]c2ccccc12)C(=O)N[C@@H](C(=O)N[C@@H](Cc1c[nH]c2ccccc12)C(=O)N[C@@H](C(=O)N[C@@H](Cc1c[nH]c2ccccc12)C(=O)NCCO)[C@H](C)O)[C@H](C)O)C(C)C)C(C)C [compound 13040] (For-VGA[dV]A[dL]V[dV]W[dL]W[dT]W[dT]W-NHCH2CH2OH)	100	1.01	-
CC(C)C[C@@H](NC(=O)[C@H](C)NC(=O)CNC(=O)[C@@H](NC=O)C(C)C)C(=O)N[C@@H](C)C(=O)N[C@@H](C(=O)N[C@H](C(=O)N[C@@H](C(=O)N[C@@H](Cc1c[nH]c2ccccc12)C(=O)N[C@H](CC(C)C)C(=O)N[C@@H](Cc1c[nH]c2ccccc12)C(=O)N[C@H](CC(C)C)C(=O)N[C@@H](Cc1c[nH]c2ccccc12)C(=O)N[C@H](CC(C)C)C(=O)N[C@@H](Cc1c[nH]c2ccccc12)C(=O)NCCO)[C@H](C)O)C(C)C)C(C)C [compound 1819] (For-VGA[dL]A[dV]V[dT]W[dL]W[dL]W[dL]W-NHCH2CH2OH)	100	1.22	+
CNC(=O)C[C@@H](NC(=O)[C@H](C)NC(=O)CNC(=O)[C@@H](NC=O)C(C)C)C(=O)N[C@@H](C)C(=O)N[C@H](CC(C)C)C(=O)N[C@H](C(=O)N[C@@H](C(=O)N[C@@H](Cc1c[nH]c2ccccc12)C(=O)N[C@H](CC(C)C)C(=O)N[C@@H](Cc1c[nH]c2ccccc12)C(=O)N[C@H](CC(C)C)C(=O)N[C@@H](Cc1c[nH]c2ccccc12)C(=O)N[C@H](CC(C)C)C(=O)N[C@@H](Cc1c[nH]c2ccccc12)C(=O)NCCO)C(C)C)C(C)C [compound 8038] (For-VGA[dD](NHMe)A[dL]V[dV]W[dL]W[dL]W[dL]W-NHCH2CH2OH)	100	1.04	-
CNC(=O)C[C@@H](NC(=O)[C@H](C)NC(=O)[C@@H](CC(C)C)NC(=O)[C@H](C)NC(=O)CNC(=O)[C@@H](NC=O)C(C)C)C(=O)N[C@H](C(=O)N[C@H](CC(C)C)C(=O)N[C@@H](Cc1c[nH]c2ccccc12)C(=O)N[C@H](CC(C)C)C(=O)N[C@@H](Cc1c[nH]c2ccccc12)C(=O)N[C@@H](C(=O)N[C@@H](Cc1c[nH]c2ccccc12)C(=O)N[C@@H](C(=O)N[C@@H](Cc1c[nH]c2ccccc12)C(=O)NCCO)C(C)C)C(C)C)C(C)C [compound 7119] (For-VGA[dL]A[dD](NHMe)V[dL]W[dL]W[dV]W[dV]W-NHCH2CH2OH)	100	1.15	-
CC(C)C[C@@H](NC(=O)[C@H](Cc1c[nH]c2ccccc12)NC(=O)[C@@H](CC(C)C)NC(=O)[C@H](Cc1c[nH]c2ccccc12)NC(=O)[C@@H](CC(C)C)NC(=O)[C@H](Cc1c[nH]c2ccccc12)NC(=O)[C@H](NC(=O)[C@@H](NC(=O)[C@H](NC(=O)[C@H](C)NC(=O)[C@H](NC(=O)[C@H](C)NC(=O)CNC(=O)[C@@H](NC=O)C(C)C)[C@H](C)O)C(C)C)C(C)C)C(C)C)C(=O)N[C@@H](Cc1c[nH]c2ccccc12)C(=O)NCCO [compound 3786] (For-VGA[dT]A[dV]V[dV]W[dL]W[dL]W[dL]W-NHCH2CH2OH)	100	1.18	-
CC(C)C[C@@H](NC(=O)[C@H](Cc1c[nH]c2ccccc12)NC(=O)[C@H](NC(=O)[C@@H](NC(=O)[C@H](NC(=O)[C@H](C)NC(=O)[C@H](NC(=O)[C@H](C)NC(=O)CNC(=O)[C@@H](NC=O)C(C)C)C(C)C)C(C)C)C(C)C)C(C)C)C(=O)N[C@@H](Cc1c[nH]c2ccccc12)C(=O)N[C@@H](C(=O)N[C@@H](Cc1c[nH]c2ccccc12)C(=O)N[C@@H](C(=O)N[C@@H](Cc1c[nH]c2ccccc12)C(=O)NCCO)C(C)C)C(C)C [compound 169] (For-VGA[dV]A[dV]V[dV]W[dL]W[dV]W[dV]W-NHCH2CH2OH)	100	1.04	++
CNC(=O)C[C@@H](NC(=O)[C@@H](NC(=O)[C@@H](CC(C)C)NC(=O)[C@H](C)NC(=O)[C@H](NC(=O)[C@H](C)NC(=O)CNC(=O)[C@@H](NC=O)C(C)C)C(C)C)C(C)C)C(=O)N[C@@H](Cc1c[nH]c2ccccc12)C(=O)N[C@H](CC(C)C)C(=O)N[C@@H](Cc1c[nH]c2ccccc12)C(=O)N[C@H](CC(C)C)C(=O)N[C@@H](Cc1c[nH]c2ccccc12)C(=O)N[C@H](CC(C)C)C(=O)N[C@@H](Cc1c[nH]c2ccccc12)C(=O)NCCO [compound 1242] (For-VGA[dV]A[dL]V[dD](NHMe)W[dL]W[dL]W[dL]W-NHCH2CH2OH)	65.8	1.13	-
CC(C)C[C@@H](NC(=O)[C@H](C)NC(=O)[C@H](NC(=O)[C@H](C)NC(=O)CNC(=O)[C@@H](NC=O)C(C)C)[C@H](C)O)C(=O)N[C@H](C(=O)N[C@H](CC(C)C)C(=O)N[C@@H](Cc1c[nH]c2ccccc12)C(=O)N[C@H](CC(C)C)C(=O)N[C@@H](Cc1c[nH]c2ccccc12)C(=O)N[C@@H](C(=O)N[C@@H](Cc1c[nH]c2ccccc12)C(=O)N[C@H](CC(C)C)C(=O)N[C@@H](Cc1c[nH]c2ccccc12)C(=O)NCCO)C(C)C)C(C)C [compound 789] (For-VGA[dT]A[dL]V[dL]W[dL]W[dV]W[dL]W-NHCH2CH2OH)	100	1.08	-
CC(C)C[C@@H](NC(=O)[C@H](C)NC(=O)[C@H](NC(=O)[C@H](C)NC(=O)CNC(=O)[C@@H](NC=O)C(C)C)C(C)C)C(=O)N[C@H](C(=O)N[C@@H](C(=O)N[C@@H](Cc1c[nH]c2ccccc12)C(=O)N[C@H](CC(C)C)C(=O)N[C@@H](Cc1c[nH]c2ccccc12)C(=O)N[C@@H](C(=O)N[C@@H](Cc1c[nH]c2ccccc12)C(=O)N[C@@H](C(=O)N[C@@H](Cc1c[nH]c2ccccc12)C(=O)NCCO)C(C)C)[C@H](C)O)C(C)C)C(C)C [compound 8473] (For-VGA[dV]A[dL]V[dV]W[dL]W[dT]W[dV]W-NHCH2CH2OH)	53.6	1.01	-
CNC(=O)C[C@@H](NC(=O)[C@H](Cc1c[nH]c2ccccc12)NC(=O)[C@H](NC(=O)[C@H](Cc1c[nH]c2ccccc12)NC(=O)[C@H](NC(=O)[C@H](Cc1c[nH]c2ccccc12)NC(=O)[C@@H](CC(C)C)NC(=O)[C@@H](NC(=O)[C@@H](CC(C)C)NC(=O)[C@H](C)NC(=O)[C@H](NC(=O)[C@H](C)NC(=O)CNC(=O)[C@@H](NC=O)C(C)C)C(C)C)C(C)C)C(C)C)C(C)C)C(=O)N[C@@H](Cc1c[nH]c2ccccc12)C(=O)NCCO [compound 3866] (For-VGA[dV]A[dL]V[dL]W[dV]W[dV]W[dD](NHMe)W-NHCH2CH2OH)	100	1.31	-
